From patent US20190390169A1, “PANCREATIC PROGENITOR CELL PRODUCTION METHOD” (Kyoto University, priority 2017, published 2019)
Where a name gives a salt, the structure may show the parent alone.

What was measured:
[1] = system: Ff-WJ-18 cells (human iPS cells); experiment: Induction of differentiation of iPS cells into pancreatic progenitor cells at stage 4, flow cytometry; format: cell-based; settings: stage 4, 4 days, 0.00001 μM to 1 μM, medium with or without ROCK inhibitor Y-27632, vs negative control (FIG. 2, FIG. 3)
Procedure: The human iPS cells used were Ff-WJ-18 cells (Kyoto University). The Ff-WJ-18 cells maintenance-cultured according to Reference Example 1 were induced to differentiate into pancreatic progenitor cells by the following procedures. Culture was performed at 37° C. under 5% CO2 in all cases, and the culture container used was coated with iMatrix-511(TM) (Nippi).
Ff-WJ-18 cells (70,000 cells/9.6 cm^2) were seeded to RPMI1640 medium containing 1% penicillin/streptomycin, 1% B27, activin A (100 ng/mL), CHIR99021 (3 μM), and Y-27632 (10 μM), and cultured for 1 day. The cells were further cultured for 2 days in RPMI1640 medium containing 1% penicillin/streptomycin, 1% B27, and activin A (100 ng/mL) with the medium replaced with a fresh one every day.
The resulting cells were cultured for 4 days using instead iMEM medium containing 1% penicillin/streptomycin, 1% B27, and KGF (50 ng/mL). […]
The cells after the culture at stage 4 were collected, and the proportion of NKX6.1-positive/PDX-1-positive cells was determined by flow cytometry. Likewise, the proportion of the cells was determined as to iPS cells and cells before the culture at stage 4 (s3d2: stage 3, day 2). […]
Also, an effect was compared between a factor having CDK1/2-inhibiting activity and a factor having CDK8/19-inhibiting activity by a similar method. […] The proportion of NKX6.1-positive/PDX-1-positive cells was determined.

[2] = target: T1, CDK8/CycC (Homo sapiens, UniProt P49336); experiment: CDK8-inhibiting activity (Kinase Tracer-236 / Eu-anti-GST fluorescence assay); format: binding; settings: read-out: rate of inhibition of CDK8; for inhibition at 1 µM: 1 μM test compound; for inhibition at 10 µM: 10 μM test compound
T1 construct: purchased Carna Biosciences
T1 sequence (P49336 whole entry): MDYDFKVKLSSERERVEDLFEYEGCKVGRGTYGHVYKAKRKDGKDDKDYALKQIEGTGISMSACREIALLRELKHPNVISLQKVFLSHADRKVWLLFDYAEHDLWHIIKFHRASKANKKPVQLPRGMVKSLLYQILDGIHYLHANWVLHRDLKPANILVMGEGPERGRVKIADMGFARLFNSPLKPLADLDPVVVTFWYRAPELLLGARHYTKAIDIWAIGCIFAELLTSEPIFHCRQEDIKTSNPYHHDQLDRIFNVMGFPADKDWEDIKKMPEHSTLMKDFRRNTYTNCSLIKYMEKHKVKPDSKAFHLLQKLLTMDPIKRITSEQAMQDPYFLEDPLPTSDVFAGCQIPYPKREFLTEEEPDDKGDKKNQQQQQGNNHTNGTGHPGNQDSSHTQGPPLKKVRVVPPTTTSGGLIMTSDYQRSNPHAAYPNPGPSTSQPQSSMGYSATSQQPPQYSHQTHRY
T1 sequence (P24863 whole entry partner): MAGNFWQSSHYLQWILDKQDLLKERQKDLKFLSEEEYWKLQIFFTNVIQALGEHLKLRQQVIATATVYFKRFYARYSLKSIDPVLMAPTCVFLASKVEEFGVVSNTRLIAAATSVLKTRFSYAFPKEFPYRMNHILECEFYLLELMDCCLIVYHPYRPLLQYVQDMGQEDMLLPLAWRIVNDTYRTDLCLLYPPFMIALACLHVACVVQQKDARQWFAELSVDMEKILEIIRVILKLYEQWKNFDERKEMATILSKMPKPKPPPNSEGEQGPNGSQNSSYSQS
Procedure: (§1) Test compounds were evaluated for their CDK8-inhibiting activity and CDK19-inhibiting activity by the following method.
(§2) Each test compound dissolved in dimethyl sulfoxide was diluted with an assay buffer (25 mM HEPES, 10 mM MgCl2, 2 mM DL-dithiothreitol, 0.01% Tween-20) to obtain a primary dilution having a DMSO concentration of 3%. The primary dilution was dispensed at 2 μL/well to a 384-well plate. Then, a mixed solution of Eu^3+ Cryptate conjugated mouse monoclonal antibody anti-glutathione S-transferase (CisBio) diluted 267-fold with an assay buffer and 60 nM Kinase Tracer-236 (Life Technologies) was added at 2 μL/well. After the addition, a kinase solution (84 ng/mL CDK8/CycC (Carna Biosciences) diluted with an assay buffer was used for CDK8-inhibiting activity measurement, and 87 ng/mL CDC2L6/CycC (Carna Biosciences) diluted with an assay buffer was used for CDK19-inhibiting activity measurement) was further added at 2 μL/well. After the addition, the plate was left standing at room temperature for 1 hour, followed by the measurement of fluorescence intensity (excitation wavelength: 320 nm, fluorescence wavelength: 615 nm, 665 nm, delay time: 50 μsec) using a plate reader EnVision (Perkin Elmer).
(§3) When the fluorescence intensity of a reaction solution under compound non-addition conditions was used as a control and the fluorescence intensity of a reaction solution under 10 μM control compound addition conditions was used as a blank, the rate of inhibition of CDK8 or CDK19 by the test compound can be calculated according to the following expression:
(§4) Rate of inhibition (%)=(1−(Fluorescence intensity of the test compound−Blank)/(Control−Blank))×100
(§5) The control compound used was commercially available 4-(4-(2,3-dihydro-1,4-benzodioxin-6-yl)-1H-pyrazol-3-yl)benzene-1,3-diol.

[3] = target: T2, CDC2L6/CycC (CDK19) (Homo sapiens, UniProt Q9BWU1); experiment: CDK19-inhibiting activity (Kinase Tracer-236 / Eu-anti-GST fluorescence assay); format: binding; settings: read-out: rate of inhibition of CDK19; for inhibition at 1 µM: 1 μM test compound; for inhibition at 10 µM: 10 μM test compound
T2 construct: purchased Carna Biosciences
T2 sequence (Q9BWU1 whole entry): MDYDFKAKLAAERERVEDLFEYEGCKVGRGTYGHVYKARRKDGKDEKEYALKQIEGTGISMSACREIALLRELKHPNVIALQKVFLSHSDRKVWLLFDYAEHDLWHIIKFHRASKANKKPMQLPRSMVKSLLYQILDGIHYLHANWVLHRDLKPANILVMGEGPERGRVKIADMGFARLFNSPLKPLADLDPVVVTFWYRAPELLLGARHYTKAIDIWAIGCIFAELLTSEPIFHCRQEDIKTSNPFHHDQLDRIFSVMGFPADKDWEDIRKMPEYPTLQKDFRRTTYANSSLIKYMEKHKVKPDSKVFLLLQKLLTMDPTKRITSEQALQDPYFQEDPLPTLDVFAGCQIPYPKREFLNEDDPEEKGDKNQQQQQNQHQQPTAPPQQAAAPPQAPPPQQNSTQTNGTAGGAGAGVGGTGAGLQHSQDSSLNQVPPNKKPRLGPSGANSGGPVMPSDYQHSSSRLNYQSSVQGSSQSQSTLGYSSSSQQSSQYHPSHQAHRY
T2 sequence (P24863 whole entry partner): as the sequence (P24863 whole entry partner) above
Procedure: as §1, §2, §3, §4, §5

Row | SMILES | proportion of NKX6.1-positive/PDX-1-positive cells [1] | inhibition at 1 µM [2] [%] | inhibition at 10 µM [2] [%] | inhibition at 1 µM [3] [%] | inhibition at 10 µM [3] [%]
1 | Nc1nc(Nc2ccc(S(N)(=O)=O)cc2)nn1C(=S)Nc1c(F)cccc1F [CAS443798-55-8] | efficient induction of differentiation into pancreatic progenitor cells was not observed |  |  |  | 
2 | Cn1ncc2c1-c1c(Oc3ccc(F)cc3F)sc(C(N)=O)c1CC2 [Compound 1, 8-(2,4-Difluorophenoxy)-1-methyl-4,5-dihydro-1H-thieno[3,4-g]indazole-6-carboxamide] |  | 97 | 94 | 99 | 96
3 | O=C1Nc2ccccc2N(S(=O)(=O)c2ccc(F)cc2)C1CCSc1ccc2nccn2n1 (centres unmarked) [Compound 2, 4-((4-Fluorophenyl)sulfonyl)-3-(2-(imidazo[1,2-b]pyridazin-6-ylsulfanyl)ethyl)-3,4-dihydroquinoxalin-2(1H)-one] |  | 100 | 100 | 102 | 103
4 | NC(=O)c1ccc(-c2c[nH]c3ncccc23)cc1NCc1ccccc1 [Compound 3, 2-(Benzylamino)-4-(1H-pyrrolo[2,3-b]pyridin-3-yl)benzamide] |  | 101 | 105 | 101 | 104
5 | c1ccc(COc2cccc(-c3c[nH]c4ncccc34)c2)cc1 [Compound 4, 3-(3-(Benzyloxy)phenyl)-1H-pyrrolo[2,3-b]pyridine] |  | 91 | 102 | 94 | 101
6 | Oc1ccc(-c2n[nH]cc2-c2ccc3c(c2)OCCO3)c(O)c1 [Compound 5, 4-(4-(2,3-Dihydro-1,4-benzodioxin-6-yl)-1H-pyrazol-3-yl)benzene-1,3-diol, reference compound] |  | 87 | 100 | 86 | 100
7 | CCCCNC(=O)c1ccc2cncc(-c3ccc(OC)cc3)c2n1 [Compound 6, N-Butyl-8-(4-methoxyphenyl)-1,6-naphthyridine-2-carboxamide trifluoroacetate] |  | 103 | 102 | 100 | 100
8 | CCCN(CCC)C(=O)c1ccc2cncc(-c3ccc(C)cc3)c2n1 [Compound 7, 8-(4-Methylphenyl)-N,N-dipropyl-1,6-naphthyridine-2-carboxamide trifluoroacetate] |  | 92 | 104 | 83 | 100
